Measured values taken from patent US11613528B2, “Small molecule inhibitors of shared epitope-calreticulin interactions and methods of use” (The Regents of the University of Michigan, priority 2017, dated 2023).
Entries after “also recorded” stand apart in the source; their conditions may differ.

What was measured:
RAW 264.7 cells = assay: in vitro osteoclast (OC) differentiation assay; format: cell-based, mouse
Method: OC differentiation was determined at day 5.
RAW 264.7 cells were cultured in OC-differentiating conditions in the presence or absence of the racemic mix (left) of HL840, the S-enantiomer (middle), or the R-enantiomer (right) at different concentrations, and their inhibitory effect on OC differentiation was determined at day 5.
To differentiate osteoclast (OC) from RAW 264.7 mouse macrophages, cells were cultured in the same way (2×10^4 per well), except that RANKL was added at a concentration of 20 ng/ml, for 5-6 days in the presence or absence of various compounds at different concentrations. To quantify the number of OCs, cultures were fixed and stained for tartrate-resistant acid phosphatase (TRAP) activity using an acid phosphatase kit (Kamiya Biomedical Company, Seattle, Wash.) according to the manufacturer's instructions. TRAP-positive multinucleated OCs (>3 nuclei) were counted using a tissue culture inverted microscope. All experiments were performed in triplicates and repeated 4 (C & D, n=12) or 3 (E-L; n=9) times. Percent inhibition of OC formation relative to cultures with PBS were calculated and presented as dose-response curves. IC50 values were calculated using the GraphPad-Prism software.

SE-CRT interactions = assay: inhibition of SE-CRT interactions; format: binding
[1] = permeability through Caco-2 cell layers; format: in vitro ADME; conditions: human
[2] = oral availability in vivo (oral gavage, serum levels); set-up: species or system DBA/1 mice
mice with CIA = assay: collagen induced arthritis (CIA) animal model; format: in vivo, DBA/1 mice; conditions: oral, doses as low as 1.25 μg/Kg body weight twice weekly
Method: Arthritis incidence was recorded.
2-tailed Student t-test; **, p<0.005.
Specifically, experiments were conducted with an animal model of collagen induced arthritis (CIA).

SKG mice = assay: pre-clinical model of RA in SKG mice; format: in vivo

| SMILES | enantiomer-specific activity (e.g., inhibition of SE-CRT interaction and signaling) of racemic HL840 (RAW 264.7 cells; inhibitory effect on OC differentiation at day 5, FIG. 3) | IC50 (RAW 264.7 cells; Mus musculus, RAW264.7, 120 h, RAW 264.7 cells in OC-differentiating conditions, OC differentiation at day 5, read-out: anti-osteoclast (OC) activity IC50) | inhibition of SE-CRT interactions (SE-CRT interactions) | Papp A→B [1] | oral availability in vivo [2] | arthritis severity (mice with CIA) | bone destruction (radiologic bone damage) (mice with CIA) | disease development (arthritis incidence) (mice with CIA) | therapeutic effects (SKG mice) |
| --- | --- | --- | --- | --- | --- | --- | --- | --- | --- |
| Cn1cc(/C=C/C(=O)N2CCC[C@@H](Cn3cc(CN)nn3)C2)cn1 (single isomer, unassigned) [(R)-enantiomer] | responsible for all activity |  |  |  |  |  |  |  |  |
| Cn1cc(/C=C/C(=O)N2CCC[C@@H](Cn3cc(CN)nn3)C2)cn1 (racemic) [HL840, (R,E)-(1-((1-(3-(1-methyl-1H-pyrazol-4-yl)acryloyl)piperidin-3-yl)methyl)-1H-1,2,3-triazol-4-yl)methanaminium] |  | 0.0199 nM | potent, competitive inhibition | 5.6 ×10⁻⁶ cm/s | moderately orally available; also recorded: orally available in vivo | decreased arthritis severity | prevented bone destruction | strongly inhibited disease development | Significant therapeutic effects |
